From patent US4451464A, “Trifluoromethyl substituted tricyclic quinazolinones useful as tranquilizers” (Sandoz, Inc., priority 1982, dated 1984)

Biological target: calf brain benzodiazepine receptors (calf brain cortex)
Test: Flunitrazepam Receptor Binding Assay, FBA TEST No. 2 (inhibition of specific 3H-flunitrazepam binding)
Conditions: 1.5 nM [3H]-Flunitrazepam, 15 min at 0° C., read-out: IC50 (concentration which inhibits specific binding of 3H-Flunitrazepam by 50%)
Method: Substantially similar results are obtainable in a Flunitrazepam Receptor Binding Assay as described by Chang et al., Eur. J. Pharmacol., 48, 213 (1978): when carried out with the non-substantive modifications evident from the following description (hereinafter FBA TEST No. 2): Fresh calf brain cortex is homogenized in a 19 fold volume of Tris-HCl buffer pH 7.4, using a Brinkman Polytron PT 20 and centrifuged at 50'000 g for […]. The pellets are frozen at -20° C. and resuspended in a 400 fold volume of Tris-buffer pH 7.4 before use for the binding assay. The assay mixtures consist of 1.8 ml of homogenate (corresponding to 4.5 mg of original tissue), 0.1 ml [^3 H]-Flunitrazepam (final concentration 1.5 nM), and 0.1 ml of buffer for determination of total binding or 0.1 ml of unlabelled Flunitrazepam (final concentration 1 μM) for determination of nonspecific binding, respectively. To assess the potency of various drugs in inhibiting specific binding, drugs are added (instead of buffer) to give 5 to 9 different concentrations between 1 nM and 10 μM, each in duplicate. After incubation for 15 min at 0° C., the assay mixtures are rapidly filtered through Whatman GF/B filters and washed twice with 5 ml of ice cold Tris-buffer. The filters are counted in Rialuma on a LKB Rach-Beta Liquid Scintillation Counter. […]

For `CCCCN1CCn2c1nc1ccc(C(F)(F)F)cc1c2=O` [Example 2, 1-n-butyl-7-trifluoromethyl-2,3-dihydro-imidazo[2,1-b]quinazolin-5(1H)-one], the IC50 was 15 nM.
